The text below walks through data of patent publication US4704395A, “Cyclic ether esters of 2-substituted-6-(substituted and unsubstituted) dihydrolysergic acid useful as 5HT receptor antagonists” (Eli Lilly and Company, priority 1985, dated 1987).

T1 sequence (P14842 whole entry): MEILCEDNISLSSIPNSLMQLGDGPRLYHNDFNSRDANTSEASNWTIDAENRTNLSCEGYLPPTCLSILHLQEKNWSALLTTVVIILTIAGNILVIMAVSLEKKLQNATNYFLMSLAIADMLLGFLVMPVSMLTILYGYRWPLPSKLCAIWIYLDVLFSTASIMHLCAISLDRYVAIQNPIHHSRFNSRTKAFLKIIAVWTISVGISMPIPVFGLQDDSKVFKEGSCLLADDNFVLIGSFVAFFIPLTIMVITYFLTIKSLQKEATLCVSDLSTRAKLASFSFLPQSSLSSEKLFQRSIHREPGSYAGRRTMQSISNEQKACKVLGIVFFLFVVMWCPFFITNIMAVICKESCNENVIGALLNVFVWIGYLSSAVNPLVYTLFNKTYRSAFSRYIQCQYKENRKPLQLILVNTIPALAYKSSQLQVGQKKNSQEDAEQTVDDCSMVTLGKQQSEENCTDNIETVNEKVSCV

The experiment addresses T1, 5HT2 receptors (Rattus norvegicus, UniProt P14842).
T1 construct: their external jugular veins and thoracic aortas dissected free of connective tissue; from tissue; host or cells: external jugular vein of male Wistar rats
The experiment in a line: Apparent dissociation constants (KB) for 5HT2 receptors determined in the rat jugular vein (antagonism of serotonin contraction). As to conditions: antagonist incubated one hour, 37° C., maleate salt, read-out: Apparent Dissociation Constants for 5HT2 receptors, -Log Kb ± S.E. (converted). The method, then: An initial optimum resting force of 1 and 4 g was applied to the jugular vein and aorta, respectively. […] Exp. Ther., 205, 400 (1978). Alpha receptor antagonist activity was evaluated in the aorta.
Usually Kb stands for the affinity of an antagonist, worked out from how it opposes an agonist. As to `CC(C)n1cc2c3c(cccc31)[C@H]1C[C@@H](C(=O)OC3CCOCC3)CN(C)[C@@H]1C2`, the Kb was 0.129 nM.
In the case of `CC(C)n1cc2c3c(cccc31)[C@H]1C[C@@H](C(=O)OCC3CCCCO3)CN(C)[C@@H]1C2` (stereo partly shown), the antagonist dissociation constant (Kb) is 1.91 nM.
Then `CC(C)n1cc2c3c(cccc31)[C@H]1C[C@@H](C(=O)OCCCC3CCCO3)CN(C)[C@@H]1C2` (stereo partly shown), with 5.62 nM.
Take `CC(C)n1cc2c3c(cccc31)[C@H]1C[C@@H](C(=O)OCC3CCCO3)CN(C)[C@@H]1C2` (stereo partly shown): the antagonist equilibrium constant (Kb) was 6.31 nM.
